System: HeLa cells engineered to inducibly express wild-type KRAS
Assay: Wild-type versus KRAS HeLa cell viability (Cell Titre Blue)
Format: cell-based
Settings: Homo sapiens, wild-type KRAS transgene, 72 hours, read-out: WT GI50
Experimental: Thus, atropisomer A-2 was tested on HeLa cells engineered to inducibly express wild-type or oncogenic […] transgenes using the FLP-in/T-Rex system (Invitrogen). Cells were plated, and then treated with or without doxycycline to induce transgene expression, and then treated with serially-diluted atropisomer A-2. After 72 hours of incubation, cell viability was assessed using the Cell Titre Blue reagent (Promega) and a BMG Pherastar plate reader. The effect of PBD inhibition on cell viability with either wild-type or oncogenic G12V KRAS was assessed using GraphPad Prism.

GI50: 3.01 nM
Compound: CN(C)CCNC(=O)c1ccc(-c2ccc(-c3ccc(Cl)cc3)n2-c2ccccc2C(F)(F)F)cc1 (single isomer, unassigned) [Atropisomer A-2]

Reference: patent US12637424B2, “Pharmaceutical salt of an arylpyrrole derivative” (SENTINEL ONCOLOGY LIMITED, priority 2020, dated 2026)
